The text below walks through data of US20190010461A1, “HUMAN PLURIPOTENT STEM CELL-BASED SCREENING FOR SMOOTH MUSCLE CELL DIFFERENTIATION AND DISEASE” (Wisconsin Alumni Research Foundation, priority 2017, published 2019).

Counter-ions that a name gives are not always drawn.

One data set relates to Human pluripotent stem cell cells (H1). Put plainly: Mesoderm differentiation of H1 cells in E8BAC medium. It counts as cell-based. The following applies: CHIR99021 increased to 3 μM (from 1 μM). On the procedure: The cells reached 80-90% confluency two days later. At the day of the differentiation, ES cells were dissociated by […] (Invitrogen) for 3-5 min at 37 ° C. The cells were plated on a […]-coated plate at 1:4 ratios (1×10^5 cells/cm2). […] An increased CHIR99021 concentration of 3 μM decreased cell proliferation at 36 hours but increased MYH11 expression. At 36 hours, the cells were passaged and seeded on a new […]-coated plate (1.6×10^4 cells/cm2). The low cell density is critical for the differentiation. […] […] (E6 medium+5 μM RESV) medium supplemented with RepSox (25 μM), was then used to further mature SMCs from day 12 to 24. Cells were split (1×10^5 cells/cm2) at day 16 and further differentiated until day 24. The cells can be cryopreserved at day 16 or day 24. […] From day 0-4: medium was changed every day. From day 2-24: medium was changed every other day. For day 1 and day 8-24, 1.5×volumes of medium, compared to the normal volume used in the well, were used.
As to `Cc1c[nH]c(-c2cnc(NCCNc3ccc(C#N)cn3)nc2-c2ccc(Cl)cc2Cl)n1` [CHIR99021], the MYH11 expression result is listed as “increased” and the “cell proliferation at 36 hours” value is given as “decreased”.

The test system of the next data set is endothelium repair.
Assay: not given
Conditions: Prasad 2005; Zheng 2014; cited from earlier work.
For the molecule `CO[C@H]1C[C@@H]2CC[C@@H](C)[C@@](O)(O2)C(=O)C(=O)N2CCCC[C@H]2C(=O)O[C@H]([C@H](C)C[C@@H]2CC[C@@H](O)[C@H](OC)C2)CC(=O)[C@H](C)/C=C(\C)[C@@H](O)[C@@H](OC)C(=O)[C@H](C)C[C@H](C)/C=C/C=C/C=C/1C` [rapamycin], the “effect on endothelium repair” value is recorded as “suppressed”.

Another data set deals with MYH11 promoter-driven luciferase activity. The data set can be described thus: High-throughput screening, MYH11-Nluc-2A-Tom reporter human ES cell line, luciferase assay. In kind it is cell-based. The following applies: small molecules added day 4-14; selected when normalized reads > average+3×STDEV. On the procedure: FIGS. 1A-1C depict a schematic of high-throughput screening. […] The cells were passaged at day 4 and seeded on the 96-well plate for screening (2×10^6 cells/plate). After the reporter cell line was differentiated into mesoderm, small molecules were added to the cells from day 4 to day 14. FIG. 1B depicts the results of the screening in two batches. The luciferase assay results of individual small molecules were normalized to the average reads of all samples for each batch. The small molecules were selected for further analysis when the normalized reads were greater than “average+3×STDEV”. FIG. 1C depicts optimizing the concentration of the selected small molecules.
The cells were treated with 50 ng/ml FGF2 and 20 ng/ml BMP4 for another two days. The cells were passaged at day 4 and seeded on the 96-well plate for screening (2×10^6 cells/plate). The compounds were added from day 4-14. The Luciferase substrate (1000× dilution) (Nano-Glo Luciferase Assay system, Promega) was added to the medium for 15 min and luminescence was measured. An increase in luminescence indicates increased MYH11 expression, which is an indicator of the contractile smooth muscle cell phenotype. The Thomson custom stem cell Modulator 1, GSK-kinase inhibitor library, SellekChem Kinase inhibitor library, Analyticon NATx library, Prestwick Chemical Library, GlaxoSmithKline Protein Kinase Inhibitors, and part of Enamine Representative Diversity library were used for screening.
High-throughput screening directs contractile smooth muscle cell differentiation—The construction of the MYH11-NLuc-tdTomato human ES cell reporter line generated by CRISPR/Cas9 technology is described in FIGS. 6A-6H. The reporter cell line was differentiated into mesoderm in E8BAC medium (Zhang et al., 2017) for two days and treated with FGF2 and BMP4 to further mature mesoderm for another two days. The cells were then passaged into a 96-well plate and exposed to small molecules for 10 days using a customized robotic workstation (FIG. 1A). The workstation was designed through collaboration with TECAN, which enables us to perform the automatic high-throughput screening at specific time point and in long-term. The medium were changed every other day and the small molecules were added during the feeding. […] We then validated these hits and optimized their concentration.
Take `CC#CCn1c(N2CCC[C@@H](N)C2)nc2c1c(=O)n(Cc1nc(C)c3ccccc3n1)c(=O)n2C` [BI-1356]: the “promotes MYH11+ SMC differentiation (increased MYH11 promoter-driven luciferase activity)” value is on record as “promotes MYH11^+ SMC differentiation”.
On the same count and under the same terms, next, `CNC(=O)c1cc(Oc2ccc(NC(=O)Nc3cc(C(C)(C)C)nn3-c3ccc4ncccc4c3)c(F)c2)ccn1` [DCC-2036, DCC-2036 (Rebastinib)]: “promotes MYH11^+ SMC differentiation”; `CN(C)C(=O)OC1CNC(C#Cc2cc3ncnc(Nc4ccc(OCc5cccc(F)c5)c(Cl)c4)c3s2)C1` (stereo not shown) [GSK182497A]: “promotes MYH11^+ SMC differentiation”.
`COc1cc2ncnc(Nc3ccc4c(cnn4Cc4ccccc4)c3)c2cc1OC` [GSK282449A]: the “promotes MYH11+ SMC differentiation (increased MYH11 promoter-driven luciferase activity)” value is reported as “promotes MYH11^+ SMC differentiation”.
With `COC(=O)Nc1nc2ccc(Sc3ccc(NC(=O)Nc4cc(C(F)(F)F)ccc4F)cc3)cc2[nH]1` [GSK607049C], the “promotes MYH11+ SMC differentiation (increased MYH11 promoter-driven luciferase activity)” value is given as “promotes MYH11^+ SMC differentiation”.
Same read-out and setting: in the case of `NC(=O)c1sc(-n2cnc3ccccc32)cc1OCc1ccccc1Br` [GSK1023156A] it was “promotes MYH11^+ SMC differentiation”.
Same read-out and setting: next, `O=C(Nc1ccc(OC(F)(F)F)cc1)c1sccc1NCc1ccnc2ccccc12` [OSI-930]: “promotes MYH11^+ SMC differentiation”; `O=C(O)C(Cc1c[nH]c2ccccc12)N1C(=O)c2ccccc2C1=O` (stereo not shown) [RG108]: “promotes MYH11^+ SMC differentiation”; `CCO.N#CC(=C(/N)Sc1ccccc1N)/C(C#N)=C(\N)Sc1ccccc1N` [UO126, U0126-EtOH]: “promotes MYH11^+ SMC differentiation”.
Still for that read-out and setting: in the case of `C[C@@H](N)[C@H]1CC[C@H](C(=O)Nc2ccncc2)CC1` [Y27632] it was “promotes MYH11^+ SMC differentiation”.
As to `CC(C(=O)O)c1ccc(-c2ccccc2)c(F)c1` (stereo not shown) [flurbiprofen, Flurbiprofen], the “promotes MYH11+ SMC differentiation (increased MYH11 promoter-driven luciferase activity)” value was “promotes MYH11^+ SMC differentiation”.
On the same count and under the same terms, in the case of `NS(=O)(=O)c1cc2c(cc1C(F)(F)F)NCNS2(=O)=O` [hydroflumethiazide, Hydroflumethiazide] it was “promotes MYH11^+ SMC differentiation”; in that of `Cc1ccc(NC(=O)c2ccc(CN3CCN(C)CC3)cc2)cc1Nc1nccc(-c2cccnc2)n1` [imatinib, Imatinib Mesylate], “promotes MYH11^+ SMC differentiation”.
Same read-out and setting: next, `CC1=C(/C=C/C(C)=C/C=C/C(C)=C/C(=O)O)C(C)(C)CCC1` [retinoic acid, All-Trans Retinoic Acid]: “promotes MYH11^+ SMC differentiation”.
For the molecule `N[C@@H](CC(=O)N1CCn2c(nnc2C(F)(F)F)C1)Cc1cc(F)c(F)cc1F` [sitagliptin, Sitagliptin], the “promotes MYH11+ SMC differentiation (increased MYH11 promoter-driven luciferase activity)” value is listed as “promotes MYH11^+ SMC differentiation”.
Regarding `CNC(=O)c1cc(Oc2ccc(NC(=O)Nc3ccc(Cl)c(C(F)(F)F)c3)cc2)ccn1` [sorafenib, Sorafenib (Nexavar)], the “promotes MYH11+ SMC differentiation (increased MYH11 promoter-driven luciferase activity)” value is given as “promotes MYH11^+ SMC differentiation”.
Consider `CC(=O)[N-]S(=O)(=O)c1ccc(N)cc1.O.[Na+]` [sulfacetamide sodic hydrate, Sulfacetamide sodic hydrate], for which the “promotes MYH11+ SMC differentiation (increased MYH11 promoter-driven luciferase activity)” value was “promotes MYH11^+ SMC differentiation”.
Take `Nc1ccc(S(=O)(=O)Nc2ccnn2-c2ccccc2)cc1` [sulfaphenazole, Sulfaphenazole]: the “promotes MYH11+ SMC differentiation (increased MYH11 promoter-driven luciferase activity)” value was “promotes MYH11^+ SMC differentiation”.
As to `N[C@@H]1C[C@H]1c1ccccc1` [tranylcypromine hydrochloride, Tranylcypromine hydrochloride], the “promotes MYH11+ SMC differentiation (increased MYH11 promoter-driven luciferase activity)” value is given as “promotes MYH11^+ SMC differentiation”.

The test system of the next data set is MYH11-Tom+ cells. The data set can be described thus: Flow cytometric analysis of MYH11-Tom+ cells in SMC differentiation. In kind it is cell-based, human. Conditions: with RepSox 25 μM; DAPT 20 μM, DBZ 10 μM, RO04929097 10 μM; day 10-16. The method, then:
Data are represented as mean±standard deviation (SD). […] Scale bar=1 mm. […] Scale bar=50 μm. […] Data are represented as mean±SD. Student's t-test, *: P<0.05, n=3.
FIGS. 7A-7G show the target of RepSox. […] Cells were treated with RepSox (25 μM) or SiRNA. […] Cells were treated with RepSox (25 μM) or SiRNA. […] During the smooth muscle cells differentiation, cells were treated with or without RepSox from day 10-11. […] During the smooth muscle cells differentiation, cells were treated with RepSox for 1 or 20 hours at day 12. […] Cells were treated with RepSox and non-targeting control (NT)/SiRNA at day 10. The RNA was isolated at day 14.
Optimized smooth muscle cell differentiation—Human pluripotent stem cell cells (H1) were cultured in E8 medium on a […]™-coated plate. To achieve the best differentiation results, ES cells were split using EDTA at 1:4 ratios two days before the differentiation. The cells reached 80-90% confluency two days later. At the day of the differentiation, ES cells were dissociated by ACCUTASE™ (Invitrogen) for 3-5 min at 37 ° C. The cells were plated on a […]™-coated plate at 1:4 ratios (1×10^5 cells/cm2). […] An increased CHIR99021 concentration of 3 μM decreased cell proliferation at 36 hours but increased MYH11 expression. At 36 hours, the cells were passaged and seeded on a new […]™-coated plate (1.6×10^4 cells/cm2). The low cell density is critical for the differentiation. A cell density of 1.0-4.0×10^4 cells/cm2 for different cell lines can be tested, such that 100% cell confluence will be achieved at day 6, which gives rise to the best differentiation efficiency. The cells were treated with E6T medium (E8 medium minus FGF2 but still containing 1.7 ng/ml TGF-β1) for 18 hours to induce the transient and medium level expression of MEOX1. E5F medium (E8 medium minus insulin and TGF-β1, but still containing 100 ng/ml FGF2) was used to suppress MEOX1 expression for another 5 days (days 3-8). Next, the cells were treated with E6FVR medium (E6 medium with 100 ng/ml FGF2, 50 ng/ml VEGFA, and 5 μM RESV, a NOTCH agonist) to induce SMC progenitors from day 8-12. E6R (E6 medium+5 μM RESV) medium supplemented with RepSox (25 μM), was then used to further mature SMCs from day 12 to 24. Cells were split (1×10^5 cells/cm2) at day 16 and further differentiated until day 24. The cells can be cryopreserved at day 16 or day 24. For P-SMCs, T-SMCs, and PT-SMCs, RepSox was replaced by PDGF-BB (10 ng/ml), TGF-β1 (1.7 ng/ml), or combination of PDGF-BB and TGF-β1, respectively, from day 12 to 24. From day 0-4: medium was changed every day. From day 2-24: medium was changed every other day. For day 1 and day 8-24, 1.5×volumes of medium, compared to the normal volume used in the well, were used. […]
For orientation: Flow cytometry measures light scatter and fluorescence of single cells or particles in a stream.
Regarding `C[C@H](NC(=O)Cc1cc(F)cc(F)c1)C(=O)N[C@H](C(=O)OC(C)(C)C)c1ccccc1` [DAPT], the “effect on RepSox improvement of MYH11-Tom+ cell differentiation” value (“effect … of MYH11-Tom+ cell differentiation” below) is “abolished”.
In the case of `C[C@H](NC(=O)Cc1cc(F)cc(F)c1)C(=O)N[C@@H]1C(=O)N(C)c2ccccc2-c2ccccc21` [DBZ], the “effect … of MYH11-Tom+ cell differentiation” value was “abolished”.
Consider `CC(C)(C(=O)NCC(F)(F)C(F)(F)F)C(=O)N[C@@H]1C(=O)Nc2ccccc2-c2ccccc21` [R04929097], for which the “effect … of MYH11-Tom+ cell differentiation” value is recorded as “abolished”.

For another data set, the system named is intimal hyperplasia.
Assay: not given
The following applies: DeRose 1999; Gulkarov 2009; Sawada 2000; cited from earlier work.
In the case of `CCO.N#CC(=C(/N)Sc1ccccc1N)/C(C#N)=C(\N)Sc1ccccc1N` [UO126, U0126-EtOH], the “inhibition of intimal hyperplasia in previous studies” value (shortened to “inhibition of intimal hyperplasia”) is reported as “inhibit intimal hyperplasia”.
`C[C@@H](N)[C@H]1CC[C@H](C(=O)Nc2ccncc2)CC1` [Y27632]: the “inhibition of intimal hyperplasia” value was “inhibit intimal hyperplasia”.
Turning to `CC1=C(/C=C/C(C)=C/C=C/C(C)=C/C(=O)O)C(C)(C)CCC1` [retinoic acid, All-Trans Retinoic Acid], the “inhibition of intimal hyperplasia” value was “inhibit intimal hyperplasia”.
